Results published in US4292314A, “Cardioactive 12-dehydrodigoxin-oximes” (Boehringer Mannheim GmbH, priority 1979, dated 1981).
Read-outs that look alike come from different tables or passages of the source.

Tests used:
[1] = Pharmacokinetic investigations on awake cats, intravenous injection of 3H-marked test compounds; assay type: in vivo, cat; settings: for distribution volume / elimination constant / excretion in urine: awake cats, i.v., digoxin 30 μg./kg., Cpd. 1 and Cpd. 7 100 μg./kg.; for excretion in urine: urine collected for 14 days; for dosage needed to achieve the same plasma concentration, relative to digoxin: from total clearance
Description: Pharmacokinetic investigations were carried out on awake cats, the test compounds being injected intravenously in the ^3 H-marked form. Over the course of 48 hours, blood samples were taken via an implanted catheter for the determination of the radioactivity in the plasma. The urine was collected for 14 days. The elimination constant was calculated from the decrease of the plasma concentration and the amount excreted in the urine.

[2] = system: cats with pentobarbital-induced heart insufficiency; experiment: animal or person; settings: for ED (1.5 mmHg/sec increase) / ED (3.0 mmHg/sec increase): Felis catus, 10 min; for ED (1.5 mmHg/sec increase): read-out: DE1.5; for ED (3.0 mmHg/sec increase): read-out: DE3.0; for quotient of DE3.0 and DE1.5, steepness of the dosage activity line: cats, fractionated injection
Description: (§1) The pharmacological action of the new compounds according to the present invention was determined by the comparison of 12-dehydrodigoxin oxime (Compound 1 from) and 12-dehydrodigoxin-o-methyloxime (Compound 7 from) with digoxin, which is a known pharmaceutical for the treatment of cardiac insufficiency, using the following experimental procedure:
(§2) The positive inotropic and cardiotoxic action was tested on cats with pentobarbital-induced heart insufficiency. Increasing dosages were injected at intervals of 10 minutes, so that the total dosage increased in each case by the factor √2. The criterion for the therapeutically relevant, positively inotropic action was the increase of the maximum pressure increase rate by 1.5 or 3.0 mm. Hg/sec (DE1.5 and DE3.0). The quotient from both values is a measure for the steepness of the dosage activity line.
(§3) The measure for the cardiotoxicity was the dosage at which the first disturbances of the induction of stimulation took place. The point of time of the commencement of arrhythmias as ascertained from the electrocardiogram and the related dosage calculated by interpolation. The quotient from this cardiotoxic dosage and the DE1.5 served as a measure for the therapeutic breadth.

in vivo = settings: cat, in vivo
Description: as §1, §2, §3

[3] = humans; cited from earlier work

Compound: C[C@H]1O[C@@H](O[C@H]2[C@@H](O)C[C@H](O[C@H]3[C@@H](O)C[C@H](O[C@H]4CC[C@@]5(C)[C@H](CC[C@@H]6[C@@H]5CC(=NO)[C@]5(C)[C@@H](C7=CC(=O)OC7)CC[C@]65O)C4)O[C@@H]3C)O[C@@H]2C)C[C@H](O)[C@@H]1O [Compound 1, 12-Dehydrodigoxin oxime]
- distribution volume [1]: 2.74 kg⁻¹
- elimination constant [1]: 0.0258 h⁻¹
- excretion in urine [1]: 30 % of dose
- dosage needed to achieve the same plasma concentration, relative to digoxin ([1]; cats): about 45 % of the dosage of digoxin
- elimination constant compared with digoxin ([1]; in words, cats): even greater
- ED (1.5 mmHg/sec increase) [2]: 0.105 mg/kg
- ED (3.0 mmHg/sec increase) [2]: 0.236 mg/kg
- quotient of DE3.0 and DE1.5, steepness of the dosage activity line [2]: 1.98
- TD50 (in vivo): 0.51 mg/kg
- selectivity ratio (in vivo): 4.85

Compound: CON=C1C[C@H]2[C@@H](CC[C@@H]3C[C@@H](O[C@H]4C[C@H](O)[C@H](O[C@H]5C[C@H](O)[C@H](O[C@H]6C[C@H](O)[C@H](O)[C@@H](C)O6)[C@@H](C)O5)[C@@H](C)O4)CC[C@@]32C)[C@@]2(O)CC[C@H](C3=CC(=O)OC3)[C@@]12C [Compound 7, 12-Dehydrodigoxin--O-methyloxime]
- distribution volume [1]: 1.47 kg⁻¹
- elimination constant [1]: 0.0143 h⁻¹
- excretion in urine [1]: 31 % of dose
- dosage needed to achieve the same plasma concentration, relative to digoxin ([1]; cats): 13 % of the dosage of digoxin
- distribution volume compared with digoxin ([1]; in words, cats): lower distribution volume
- elimination constant compared with digoxin ([1]; in words, cats): about equally as great as for digoxin
- total clearance compared with digoxin ([1]; in words, cats): lower total clearance
- ED (1.5 mmHg/sec increase) [2]: 0.334 mg/kg
- ED (3.0 mmHg/sec increase) [2]: 0.817 mg/kg
- quotient of DE3.0 and DE1.5, steepness of the dosage activity line [2]: 3.56
- dosage activity line compared with digoxin ([2]; in words): flatter than in the case of digoxin
- TD50 (in vivo): 1.37 mg/kg
- selectivity ratio (in vivo): 4.1

Compound: C[C@H]1O[C@@H](O[C@H]2[C@@H](O)C[C@H](O[C@H]3[C@@H](O)C[C@H](O[C@H]4CC[C@@]5(C)[C@H](CC[C@@H]6[C@@H]5C[C@@H](O)[C@]5(C)[C@@H](C7=CC(=O)OC7)CC[C@]65O)C4)O[C@@H]3C)O[C@@H]2C)C[C@H](O)[C@@H]1O [digoxin]
- distribution volume [1]: 13.3 kg⁻¹
- elimination constant [1]: 0.01214 h⁻¹
- excretion in urine [1]: 42.8 % of dose
- elimination constant [3]: about 0.015 h^-1
- ED (1.5 mmHg/sec increase) [2]: 0.12 mg/kg
- ED (3.0 mmHg/sec increase) [2]: 0.253 mg/kg
- quotient of DE3.0 and DE1.5, steepness of the dosage activity line [2]: 2.28
- TD50 (in vivo): 0.33 mg/kg
- selectivity ratio (in vivo): 2.75
